# Laboratory results published in ChEMBL document CHEMBL1128663, “Wiedendiol-A and -B, cholesteryl ester transfer protein inhibitors from the marine sponge Xestospongia wiedenmayeri” (Bioorg Med Chem Lett, 1995).
# Biological target: T1, Cholesteryl ester transfer protein (Homo sapiens, UniProt P11597)
# T1 sequence (P11597 whole entry): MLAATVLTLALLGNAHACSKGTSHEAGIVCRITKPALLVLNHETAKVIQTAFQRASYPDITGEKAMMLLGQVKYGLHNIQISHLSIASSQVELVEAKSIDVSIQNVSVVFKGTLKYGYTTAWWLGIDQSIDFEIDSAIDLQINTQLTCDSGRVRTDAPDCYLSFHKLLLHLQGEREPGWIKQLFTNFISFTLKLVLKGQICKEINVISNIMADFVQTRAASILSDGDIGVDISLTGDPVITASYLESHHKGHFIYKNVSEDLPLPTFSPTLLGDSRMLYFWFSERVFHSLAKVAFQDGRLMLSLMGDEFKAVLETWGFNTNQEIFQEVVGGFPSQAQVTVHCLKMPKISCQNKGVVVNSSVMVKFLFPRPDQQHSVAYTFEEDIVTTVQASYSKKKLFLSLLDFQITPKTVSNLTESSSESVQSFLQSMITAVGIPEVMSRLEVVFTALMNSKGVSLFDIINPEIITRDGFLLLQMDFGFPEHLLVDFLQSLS
# Assay: Compound was tested for Cholesteryl ester transfer protein (CETP) inhibition by CETP-SPA assay
row,Compound,IC50 [µM]
1,CC1(C)CCC[C@]2(C)C3C=C4C(=CC(=O)C(O)=C4Cl)OC3CC[C@@]12C (some centres not stated) [CHOLOROPUUPEHENONE],0.3
2,C[C@H]1CCC2C(C)(C)CCC[C@]23Oc2ccc(O)cc2C[C@]13C (some centres not stated),22
3,CC1=CC[C@H]2C(C)(C)CCC[C@]2(C)[C@H]1C[C@H](OS(=O)(=O)[O-])[C@H](C)CCCc1ccoc1.C[N+](C)=C(N)N [SULFIRICIN],> 190
4,COc1ccc(O)c2c1C[C@]1(C)[C@@H](C)CCC3C(C)(C)CCC[C@]31O2 (some centres not stated),46
5,COc1ccc(O)c(O)c1CC1=C(C)CCC2C(C)(C)CCC[C@]12C (some centres not stated),5
6,COc1ccc(O)c(O)c1/C=C1\[C@@H](C)CCC2C(C)(C)CCC[C@]12C (some centres not stated),5
7,CC1=CCC[C@H]2[C@](C)(Cc3cc(O)ccc3O)[C@@H](C)CC[C@]12C [AVAROL],25

# Now from value to compound:
row,IC50 [µM],Compound
1,100,C=C1CCC[C@H]2[C@](C)(CC3=C(O)C(=O)C=C(OC)C3=O)[C@@H](C)CC[C@]12C [ILIMAQUINONE]
2,196,C[C@]12CC(=O)[C@@H](O)[C@](C)(CO)[C@@H]1CC[C@@]1(C)c3cocc3CC[C@H]21 [SPONGIADIOL]
3,6,CC1(C)CCC[C@]2(C)[C@H]3C=C4C=C(O)C(=O)C=C4O[C@@]3(C)CC[C@@H]12 [PUUPEHENONE]

# Biological target: T1, Cholesteryl ester transfer protein
# Assay: Compound was tested for CETP inhibition by a precipitation method to separate lipoproteins after incubation of radiolabeled HDL with LDL and CETP.
row,IC50 [µM],Compound
1,1,COc1ccc(O)c(O)c1CC1=C(C)CCC2C(C)(C)CCC[C@]12C (some centres not stated)
2,0.6,COc1ccc(O)c(O)c1/C=C1\[C@@H](C)CCC2C(C)(C)CCC[C@]12C (some centres not stated)
